Experiments:
[1] = tested on: MCF10A cells; assay: Scratch wound cell migration assay; assay type: cell-based, human; conditions: 40 μM
Description: (§1) Cells seeded at equal density were allowed to grow to confluence overnight. The Essen Bioscience WoundMaker^TM, an accessory for the IncuCyte Zoom®, was utilized to create Scratch-wounds of a standardized width (~600 μm). Cells were treated with the indicated inhibitors and imaged every 15 min for 44 h and the percentage of wound confluence was analyzed.
(§2) Fig. S10. […] MCF10A cells (a) or MDA-MB231 cells (b) were allowed to grow to confluence overnight. Wounds of a standardized width were created using the Essen Bioscience WoundMakerTM. […] Wound closure was monitored using the Essen IncuCyte Zoom live-cell microscopy incubator. Images were captured every 2 h for the duration of the experiment. Error bars represent the SEM of two biological replicates derived from technical triplicates.

[2] = tested on: MDA-MB231 cells; assay: Apoptosis by annexin V/propidium iodide staining; assay type: cell-based; conditions: MDA-MB231, 40 μM, AV/PI staining
Description: Cells plated at equal density (2 × 10^4 cells/well) were treated with the indicated inhibitors in cell culture medium containing 0.5 μg/ml Propidium iodide (Sigma-Aldrich). Images of PI-stained red fluorescent cells were captured every 3 h for the duration of the experiment. For apoptosis detection, 50 μL/mL fluorochrome-conjugated Annexin V (Molecular Probes) was added to the medium together with Propidium iodide and apoptotic cell numbers were calculated.
Fig. S12. […] Cell viability was assessed by Annexin V staining (a) or PI staining (b) using the Essen IncuCyte Zoom live-cell microscopy incubator. Images were captured every hour for the duration of the experiment. Error bars represent the SEM of two biological replicates derived from technical triplicates.

[3] = tested on: Akt phosphorylation at Ser129 in MCF10A cells; assay: Western blot of Akt Ser129 phosphorylation; assay type: cell-based, human; conditions: 48 h
Description: Figure 5 Cellular effects of compounds 3, 4 and 6. MCF10A cells were incubated for 24 h with either DMSO or 30 μM TAT or 30 μM TAT-Pc or 25 μM 6 (a) or with increasing concentrations of 6 (b) or 3 (c). MCF10A cells were incubated for 48 h with either DMSO or with increasing concentrations of 3 or 6 (d). Cells were then lysed and analyzed by western blot with the indicated antibodies. Blot images are representative of at least three independent experiments. Uncropped blots are shown in Supplementary Fig. S16. (e) MDA-MB231 cells were treated with 40 μM 6 (⚬), 4 (▴) or 3 (X). (f) MDA-MB231 cells were treated for 30 h with increasing concentrations of 6 (⚬) or 4 (▴). Insert: cells were treated for 30 h with 80 μM 6 or 10 μM CX-4945. […] Cell death was automatically quantified from images captured every 3 h for the duration of the experiments using an Essen IncuCyte Zoom live-cell microscopy incubator. […]
Cells were lysed in RIPA buffer (10 mM Tris-HCl pH 7.4, 150 mM NaCl, 1% Triton X-100, 0.1% SDS, 0.5% DOC and 1 mM EDTA) containing both protease- and phosphatase-inhibitor cocktails (Sigma-Aldrich; P8340, P2850, P5726). Cell homogenates were quantified using BCA protein Assay kit (Thermo Scientific). […] Luminata Forte Western HRP substrate (Millipore) was added and membranes were read with Fusion Fx7 (PerkinElmer). […] Images were analyzed and band intensities were quantified using ImageJ software. […]

[4] = tested on: MDA-MB231 cells; assay: Scratch wound cell migration assay; assay type: cell-based; conditions: MDA-MB231, 40 μM
Description: as §1, §2

[5] = biological target: T1, CK2 holoenzyme complexes in MCF10A cells (Homo sapiens, UniProt P68400); assay: In situ proximity ligation assay (PLA); assay type: cell-based; conditions: 50 μM, 3 h, DMSO control 16 ± 4
T1 construct: endogenous in cells; host or cells: MCF10A
T1 sequence (P68400 whole entry, one chain of several): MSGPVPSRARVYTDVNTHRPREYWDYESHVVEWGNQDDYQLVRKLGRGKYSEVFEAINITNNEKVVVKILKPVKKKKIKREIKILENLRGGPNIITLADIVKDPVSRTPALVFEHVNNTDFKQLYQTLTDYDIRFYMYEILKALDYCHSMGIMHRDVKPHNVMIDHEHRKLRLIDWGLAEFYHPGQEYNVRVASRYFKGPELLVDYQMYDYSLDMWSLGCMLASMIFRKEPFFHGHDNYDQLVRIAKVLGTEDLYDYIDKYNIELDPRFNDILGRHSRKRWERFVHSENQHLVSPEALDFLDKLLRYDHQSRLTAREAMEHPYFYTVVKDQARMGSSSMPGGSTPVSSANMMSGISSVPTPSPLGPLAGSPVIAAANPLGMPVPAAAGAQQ
Description: In situ PLAs were performed using a Duolink kit (Olink Bioscience, Uppsala, Sweden) according to the manufacturer’s instructions with few modifications. MCF10A cells were fixed in 4% paraformaldehyde for 10 min. The cells were then permeabilized with 0.1% Triton in Tris-buffered saline (TBS; 50 mM Tris, pH 7.6, 150 mM NaCl) and incubated with 100 mM glycine in phosphate-buffered saline (137 mM NaCl, 2.7 mM KCl, 10 mM Na2 HPO4, and 1.8 mM KH2 PO4, pH 7.4) for 20 min. Permeabilized cells were incubated overnight at 4 °C with primary antibodies diluted as follows: mouse CK2α 1:250 and rabbit CK2β 1:50. Cells were washed three times in TBS with 0.05% Tween-20 for 5 min each with gentle agitation. Secondary antibodies conjugated with oligonucleotides, PLA probe anti-mouse MINUS and PLA probe anti-rabbit PLUS, were added to the cells and incubated for 90 min at 37 °C in a humidity chamber. Finally, after ligation and amplification steps, cells were counterstained with the DNA-binding dye Hoechst and Phaloïdine-488 for actin staining (Molecular Probes, Thermo Fisher Scientific, Courtaboeuf, France). Images were observed using a Zeiss Apotome microscope and analyzed using a Zen Pro imaging software (Zeiss, Oberkochen, Germany). Quantification was performed using the BlobFinder software (V3.2, Swedish University of Agricultural Sciences, Uppsala University)[67]. […]

| SMILES | cell migration / wound closure [1] | exposure time after which apoptosis was detected [2] [h] | Akt phosphorylation at Ser129 ([3]; 30 µM) | cell migration / wound closure [4] | CK2 holoenzyme complexes (PLA dots) [5] [dots/cell] | induction of apoptosis [2] | Akt phosphorylation at Ser129 ([3]; 100 µM) |
| --- | --- | --- | --- | --- | --- | --- | --- |
| COc1[nH]c2ccc(F)cc2c1C(=O)OCC1CCN(CCNS(=O)(=O)c2ccccc2)CC1.Cl [Compound 6] | completely abrogated | 8 | slight but not statistically significant alteration | completely abrogated | 6 ± 2 | – | – |
| O=C(OCC1CCN(CCNS(=O)(=O)c2ccccc2)CC1)c1c[nH]c2ccccc12 [Compound 4, (1-(2-(Phenylsulfonamido)ethyl)piperidin-4-yl)methyl 1H-indole-3-carboxylate] | – | – | – | – | 8 ± 2 | – | – |
| CS(=O)(=O)NCCN1CCC(COC(=O)c2c[nH]c3ccccc23)CC1 [Compound 3, (1-(2-(Methylsulfonamido)ethyl)piperidin-4-yl)methyl 1H-indole-3-carboxylate] | not affected | – | – | not affected | – | unable to induce apoptosis | slight but not statistically significant alteration |

— publication PMC6828666, “Discovery of holoenzyme-disrupting chemicals as substrate-selective CK2 inhibitors” (Scientific Reports, 2019)
